# Several values for one entry are separate records, joined by “and”; a condition that tells them apart may be missing. Equal entries are not always repeated. Marks after values point to notes of the source that are not given here.
# What was measured:
# [1] = Novel excipients (Cremophor EL, Solutol HS 15): 2-IB content of formulations at t=0 and after 48 hours; conditions: Solutol HS 15 formulation
# Method: Finally two novel excipients were tested, Cremophor EL and Solutol HS 15.
# A range of 2-IB formulations were prepared that were stored for 48 hours and measured for 2-IB content:
# [2] = Solubility of 2-IB in 10% SBE-CD at different pH adjusted with 0.1 M citric acid (HPLC); format: physicochemical
# [3] = Surfactants: stepwise solubility in surfactant solutions in 5% dextrose; format: physicochemical; conditions: nominal 1.6 mg/ml, without addition of acid
# Method: Stock solutions of the surfactant were prepared in 5% dextrose.
# [4] = Solubility of 2-IB (5 mg/ml) using different acids; format: physicochemical
# [5] = Solvent selection: stepwise solvent addition, solubility judged visually
# Method: Solubility of 2-IB was determined in the following solvents: • 0.9% Sodium chloride in water • 5% Dextrose in water • N,N-dimethylacetamide • N,N-dimethylformamide • Dimethyl sulfoxide • Ethanol • Propolyene glycol • Polyethyleneglycol 400 • Corn oil
# Approximately 10 mg of 2-IB was weighed into a 10 ml tube. Subsequently, small aliquots (100 μl-100 μl-200 μl-400 μl-800 μl-1600 μl-3200 μl) of the respective solvents were added stepwise. After each addition, the solution was mixed intensively and visually judged for solubility.
# Therefore the experiment was repeated for propylene glycol but with addition of 100 μl 1N hydrochloric acid after 200 μl propylene glycol (i.e. 10 mg 2-IB+200 μl propylene glycol+100 μl 1N hydrochloric acid).
# When an acidified 2-IB formulation in 5% dextrose is prepared, the pH after acidification is approximately 2 for nominal 2-IB concentrations in the range 1-5 mg/ml.
# [6] = From the text: Necropsy took place approximately one hour after the second injection. Blood and brain samples were collected for both the mother and fetuses.
# piglets = conditions: versus allopurinol or deferoxamine; cited from earlier work
# [7] = Solubility in citrate buffers (excess 2-IB, filtered, RP-HPLC); format: physicochemical
# Method: An excess of 2-IB was added to citrate buffers, mixed at room temperature and then filtered to remove nonsolubilised 2-IB.
# [8] = nominal 5.0 mg/ml, pH 2.8, after filtration
# [9] = nominal 5.0 mg/ml, pH 3.0, after filtration
# [10] = nominal 5.0 mg/ml, pH 3.5, after filtration
# [11] = nominal 5.0 mg/ml, pH 3.6, after filtration
# [12] = nominal 5.0 mg/ml, pH 3.8, after filtration
# [13] = nominal 5.0 mg/ml, pH 10.2, after filtration
# [14] = nominal 10 mg/ml, pH 3.0, after filtration
# [15] = nominal 10 mg/ml, pH 3.5, after filtration
# [16] = nominal 20 mg/ml, pH 3.0, after filtration
# [17] = nominal 20 mg/ml, pH 3.5, after filtration
# [18] = average of 4 litters, maternal dose 55 mg/kg sc, 55 mg/kg
# [19] = average of 4 maternal rats, 55 mg/kg sc, 55 mg/kg
# [20] = pooled female fetuses per maternal rat, maternal dose 55 mg/kg sc, 55 mg/kg
# [21] = pooled male fetuses per maternal rat, maternal dose 55 mg/kg sc, 55 mg/kg
# [22] = 960 mg/kg/24 h 2-IB in 5% Solutol, continuous iv infusion
# Method for Wistar rats: Group I: Vehicle 20% Solutol (Continuous Intravenous Infusion)
# Animals received a continuous infusion of vehicle only (20% Solutol in 5% dextrose) at a dose volume of 4 mL/kg/h for 24 hours.
# Group II: Vehicle 5% Solutol (Continuous Intravenous Infusion)
# Animals received a continuous infusion of vehicle only (5% Solutol in 5% dextrose) at a dose volume of 4 mL/kg/h for approximately 96 hours.
# Group III: 960 mg/kg/24 h of 2-IBin 5% Solutol (Continuous Intravenous Infusion).
compound,measurement,setting,value
"N=C1N[C@H]2[C@H](CS[C@H]2CCCCC(=O)O)N1 [Formulation 2-IB, 2-iminobiotin]",Concentration t = 48 h,"[1]; nominal 5.0 mg/ml, pH 2.4, after filtration",4780 µg/mL
same,Concentration t = 0,[1]; [8],5430 µg/mL
same,Concentration t = 48 h,[1]; [8],5450 µg/mL
same,Concentration t = 0,[1]; [9],4640 µg/mL
same,Concentration t = 48 h,[1]; [9],4870 µg/mL
same,Concentration t = 0,[1]; [10],5210 µg/mL
same,Concentration t = 48 h,[1]; [10],4940 µg/mL
same,Concentration t = 0,[1]; [11],4520 µg/mL
same,Concentration t = 48 h,[1]; [11],3930 µg/mL
same,Concentration t = 0,[1]; [12],5100 µg/mL
same,Concentration t = 48 h,[1]; [12],2620 µg/mL
same,Concentration t = 0,[1]; [13],5710 µg/mL
same,Concentration t = 48 h,[1]; [13],0 µg/mL
same,Concentration t = 0,[1]; [14],9060 µg/mL
same,Concentration t = 48 h,[1]; [14],8640 µg/mL
same,Concentration t = 0,[1]; [15],8300 µg/mL
same,Concentration t = 48 h,[1]; [15],8040 µg/mL
same,Concentration t = 0,[1]; [16],16600 µg/mL
same,Concentration t = 48 h,[1]; [16],16700 µg/mL
same,Concentration t = 0,[1]; [17],14700 µg/mL
same,Concentration t = 48 h,[1]; [17],13200 µg/mL
same,solubility with pH-adjustment alone,"[2]; pH 4.0, without SBE-CD",1.72 mg/g
same,solubility with pH-adjustment alone,"[2]; pH 5.0, without SBE-CD",0.59 mg/g
same,"solubility, visually judged",[3],did not dissolve in any of the surfactant solutions
same,pH at which solubility was achieved,[4]; HCl,3.0
same,pH at which solubility was achieved,[4]; weak acids (acetic acid and citric acid),3.3
same,concentration of fully dissolved and stable solution,[5]; 10 mg 2-IB+200 μl propylene glycol+100 μl 1N hydrochloric acid,33000 µg/mL
same,"solubility, visually judged","[5]; 10 mg in 6400 μl (1.6 mg/ml) of 0.9% NaCl, 5% dextrose, DMA, DMF, DMSO, ethanol, propylene glycol, PEG 400 or corn oil",not sufficiently soluble in any of these solvents
same,effect of addition of water,[5]; 33 mg/ml propylene glycol/hydrochloric acid formulation,immediately resulted in precipitation of 2-IB
same,"precipitation, visual observation",[5]; acidified 2-IB in 5% dextrose neutralized to pH 7,nearly all 2-IB has precipitated out of solution
same,pH up to which partial neutralization is possible before precipitation,"[5]; acidified 2-IB in 5% dextrose, nominal 1-5 mg/ml, 0.1% sodium hydroxide",3-3.5
same,"solubility, visually judged",[5]; same solvents after addition of 100 μl of 1N hydrochloric acid,fully dissolved in all solvents
same,mortality of maternal animals,"[6]; 55 mg/kg sc, Day 20 post-coitum",No mortality occurred
same,"2-IB concentration in brain, female fetuses, average (±SD)",[6]; [18],369 ng/g and 369 (±72) ng/g
same,"2-IB concentration in brain, male fetuses, average (±SD)",[6]; [18],329 ng/g and 329 (±72) ng/g
same,"2-IB plasma concentration, female fetuses, average (±SD)",[6]; [18],"1,903 ng/mL and 1,903 (±437) ng/mL"
same,"2-IB plasma concentration, male fetuses, average (±SD)",[6]; [18],"1,765 ng/mL and 1,765 (±259) ng/mL"
same,"2-IB concentration in brain, maternal, average (±SD)",[6]; [19],268 ng/g and 268 (±92) ng/g
same,"2-IB plasma concentration, maternal, average (±SD)",[6]; [19],"10,039 ng/mL and 10,039 (±3371) ng/mL"
same,"2-IB concentration in brain sample, maternal","[6]; individual maternal Wistar rats, 55 mg/kg sc, 55 mg/kg",151 ng/g and 375 ng/g and 270 ng/g and 276 ng/g
same,"2-IB plasma concentration, maternal","[6]; individual maternal Wistar rats, Day 20 post-coitum, 2 sc injections of 27.5 mg/kg, approximately one hour after second injection, 27.5 mg/kg","7,104 ng/mL and 14,185 ng/mL and 7,490 ng/mL and 11,378 ng/mL"
same,"2-IB concentration in brain sample, pooled fetuses (females)",[6]; [20],474 (n = 3) ng/g and 317 (n = 8) ng/g and 329 (n = 4) ng/g and 356 (n = 7) ng/g
same,"2-IB plasma concentration, pooled fetuses (females)",[6]; [20],"2,442* (n = 3) ng/mL and 2,063 (n = 8) ng/mL and 1,474 (n = 4) ng/mL and 1,634 (n = 7) ng/mL"
same,"2-IB concentration in brain sample, pooled fetuses (males)",[6]; [21],287 (n = 8) ng/g and 435 (n = 4) ng/g and 283 (n = 5) ng/g and 309 (n = 8) ng/g
same,"2-IB plasma concentration, pooled fetuses (males)",[6]; [21],"1,868 (n = 8) ng/mL and 2,080 (n = 4) ng/mL and 1,598 (n = 5) ng/mL and 1,512 (n = 8) ng/mL"
same,transfer over the placenta and the blood-brain barrier,"[6]; two sc injections, total dose level 55 mg/kg",confirmed
same,effectiveness in preventing and/or treating effects of perinatal asphyxia,piglets,more effective
same,bilirubin levels,Wistar rats; [22],within the normal range
same,body weights,Wistar rats; [22],increased for two animals
same,clinical chemistry at the end of treatment,Wistar rats; [22],"slight to moderate increase in aspartate aminotransferase (1/2), alkaline phosphatase (1/2), and glucose (2/2)"
same,creatinine and urine at the end of treatment,Wistar rats; [22],high values for creatinine and urine (1/2)
same,macroscopic findings at necropsy,Wistar rats; [22],"oedema (2/3), pelvic dilation of the kidneys (2/3), enlarged liver (1/3), enlarged iliac lymph node (113), dark spots on the lungs (1/3), and fibrin-like coating in or around the femoral vein"
same,clinical signs,"Wistar rats; 960 mg/kg/24 h 2-IB in 5% Solutol, continuous iv infusion, Days 2-3","hunched posture, piloerection and pallor"
same,mortality,"Wistar rats; 960 mg/kg/24 h 2-IB in 5% Solutol/5% dextrose, continuous iv infusion 4 mL/kg/h, terminated after 46 hours",One animal died after 46 hours of infusion
same,Conc. 2IB,"[7]; 50 mM Citrate pH 3.0, final pH 3.07, room temperature",11000 µg/mL and 11270 µg/mL
same,Conc. 2IB,"[7]; 50 mM Citrate pH 3.5, final pH 3.52",4450 µg/mL
same,Conc. 2IB,"[7]; 50 mM Citrate pH 4.0, final pH 4.03",1720 µg/mL
same,Conc. 2IB,"[7]; 50 mM Citrate pH 4.5, final pH 4.54",860 µg/mL
same,Conc. 2IB,"[7]; 50 mM Citrate pH 5.0, final pH 5.02",590 µg/mL
